Assay results taken from ChEMBL document CHEMBL1124582, “Design of potential anti-HIV agents. 1. Mannosidase inhibitors” (J Med Chem, 1989).
pIC50: −log10 of the molar value.

Test: Inhibitory activity against Mannosidase in rat liver

| SMILES | pIC50 |
| --- | --- |
| O[C@H]1[C@@H]2[C@H](O)CCCN2C[C@H]1O | ~5.00 |
| O[C@H]1[C@H]2[C@@H](O)CCCN2C[C@H]1O | ~4.30 |
| OC1CN2CCCCC2C1O (centres undefined) | 2.12 |
| O[C@@H]1[C@H]2[C@@H](O)CCCN2C[C@H]1O | ~4.30 |
